Measurements reported in patent US7371766B2, “Curcumin analogs with anti-tumor and anti-angiogenic properties” (Emory University, priority 1999, dated 2008).
Read-outs that look alike come from different tables or passages of the source.

Assays:
[1] = test system: Tissue Factor (TF) production by human prostate cancer cell line PC-3; experiment: TF ELISA, PC-3; format: cell-based; settings: 20 μM
Experimental: (§1) Cells were treated with 1% Triton X-100 in PBS and left overnight at 4° C. overnight to solubilize TF. […] IMUBIND Tissue Factor ELISA Kit (American Diagnostica Inc, Greenwich, Conn.) was used to determine TF concentration in each sample. The ELISA was carried out according to manufacturer's procedure.

[2] = test system: Vascular Endothelial Growth Factor (VEGF) production by human melanoma cell line RPMI-7951; experiment: VEGF ELISA, RPMI-7951; settings: for VEGF ELISA / VEGF: RPMI-7951; for VEGF ELISA: DMSO control 3713
RPMI-7951 human melanoma = experiment: Neutral Red Assay, cell viability, RPMI-7951; settings: for viability at 5 µM / viability at 20 µM: Homo sapiens; for Neutral Red Uptake, % / Cell Viability: RPMI-7951; for Neutral Red Uptake, %: 72 hours; for Cell Viability: DMSO = 100
Experimental: RPMI-795 1, MDA-MB-231 and MDA-MB-435 cell lines were cultured in MEM-alpha medium (GIBCO-BRL, Long Island, N.Y.) containing 10% fetal bovine serum (RPMI-7951, MDA-MB-231) or 5% FBS (MDA-MB-435) at 37° C. and under 5% CO2/95% air. […] The cells were cultured in 48 well plates in all of the experiments described.
Neutral Red Assay was utilized to determine the effect of the compounds of the present invention on cell viability. Neutral Red was purchased from GIBCO-BRL (Long Island, N.Y.). Cells were plated at a concentration of 20,000 cells/well and cultured overnight. Compounds or vehicle (DMSO 0.1%) were then added and the plates were incubated for 72 hours. Supernatant from each well was either aspirated or collected and media containing Neutral Red (GIBCO-BRL, Long Island, N.Y.) at a concentration of 15 μl/ml was then added to each well. The plates were then incubated at 37° C. for 30 minutes. Next, the cells were washed with twice with PBS and alcoholic-HCl (0.5N—HCl/35% ethanol) was added to each well. The plates were then placed on a plate shaker until all residues were solubilized (pink color). The solubilized mixtures were then transferred to a 96 well plate and the absorbances were read on a micro-test plate reader at a wavelength of 570 nm.
Cell viability was determined by Neutral Red Assay.

[3] = test system: Vascular Endothelial Growth Factor (VEGF) production by human prostate cancer cell line PC-3; experiment: VEGF ELISA, PC-3; format: cell-based; settings: for VEGF (% of DMSO): DMSO = 100%
[4] = test system: Vascular Endothelial Growth Factor (VEGF) production by human prostate cancer cell line DU-145; experiment: VEGF ELISA, DU-145; format: cell-based; settings: for VEGF (% of DMSO): DMSO = 100%
[5] = test system: Tissue Factor (TF) production by human prostate cancer cell line DU-145; experiment: TF ELISA, DU-145; format: cell-based; settings: 20 μM
Experimental: as §1

[6] = test system: Human tumor and endothelial cell lines; experiment: Emory Laboratory Cell Screen, mean over cell lines; format: cell-based; settings: Mean over the Emory cell lines, 72 hours, read-out: Median Growth Inhibitory Concentration (GI50), Mean
Experimental: (§2) Human tumor and endothelial cell lines were treated for 72 hours with compounds at a minimum of four concentrations between 0.1 μM-40 μM. Neutral Red assay was used to calculate cell viability.

MDA-MB-231 = experiment: Emory Laboratory Cell Screen, Neutral Red, MDA-MB-231; format: cell-based, human; settings: Homo sapiens, MDA-MB-231, Breast Cancer, 72 hours, read-out: Median Growth Inhibitory Concentration (GI50)
Experimental: as §2

HUVECS = experiment: Emory Laboratory Cell Screen, Neutral Red, HUVECS; format: cell-based, human; settings: 72 hours, read-out: Median Growth Inhibitory Concentration (GI50)
Experimental: as §2

[7] = test system: Tissue Factor (TF) production by human melanoma cell line RPMI-7951; experiment: TF ELISA, RPMI-7951; format: cell-based
Experimental: IMUBIND Tissue Factor ELISA Kit (American Diagnostica Inc, Greenwich, Conn.) was used to determine TF concentration in each sample. The ELISA was carried out according to manufacturer's procedure.

RPMI 7951 = experiment: Emory Laboratory Cell Screen, Neutral Red, RPMI 7951; format: cell-based, human; settings: RPMI 7951, Melanoma, 72 hours, read-out: Median Growth Inhibitory Concentration (GI50)
Experimental: as §2

[8] = Homo sapiens, RPMI-7951, 72 h, read-out: VEGF
[9] = 5 μM, DMSO control 4197 (EF-25: 1045)
[10] = RPMI-7951, 72 h, read-out: Neutral Red Uptake, %
[11] = RPMI-7951, read-out: Cell Viability
[12] = 20 μM, mean of triplicate and S.D., DMSO 2103 ± 100
[13] = Table 4, 20 μM, mean of triplicate and S.D.
[14] = 20 μM, mean of triplicate and S.D., DMSO 18760 ± 2633

Structure (SMILES)	VEGF ELISA ([2]; 5 μM) [pg/ml/well]	VEGF [2, 9] [pg/mL]	VEGF ELISA ([2]; 20 μM) [pg/ml/well]	VEGF ([2]; 20 μM, DMSO control 4197) [pg/mL]	VEGF (% of DMSO) ([3]; 20 μM)	VEGF [3, 12] [pg/mL]	VEGF ([3]; Table 4, 20 μM, DMSO = 100) [%]	VEGF [3, 13] [pg/mL]	VEGF (% of DMSO) ([4]; 20 μM)	VEGF [4, 14] [pg/mL]	VEGF ([4]; Table 4, 20 μM, DMSO = 100) [%]	VEGF [4, 13] [pg/mL]	GI50 (HUVECS) [µM]	GI50 [6] [µM]	GI50 (RPMI 7951) [µM]	also measured
O=C(C=Cc1cccc(O)c1)C=Cc1cccc(O)c1 [EF3, 1,5-Bis(3-hydroxyphenyl)penta-1,4-dien-3-one]	2092	2827	230	0	(44%)	917 ± 261	44	917 ± 261	(138%)	25901 ± 620	149	25901 ± 620				TF (% of DMSO) ([1]; DMSO = 100%): (69%); TF ([1]; mean of triplicate and S.D., DMSO 203 ± 6): 140 ± 8 pg/mL; activity at 5 µM [2, 8]: 67%; activity at 20 µM [2, 8]: 0%; viability at 5 µM (RPMI-7951 human melanoma; [10]): 77%; viability at 20 µM (RPMI-7951 human melanoma; [10]): 8%; viability at 5 µM (RPMI-7951 human melanoma; [11]): 88%; viability at 20 µM (RPMI-7951 human melanoma; [11]): 43%; TF (% of DMSO) ([5]; DMSO = 100%): (87%); TF ([5]; mean of triplicate and S.D., DMSO 7699 ± 406): 6687 ± 188 pg/mL
CN1CC(=Cc2ccccc2O)C(=O)C(=Cc2ccccc2O)C1 [EF34, 3,5-Bis(2-hydroxybenzylidene)1-methyl4-piperidone]																GI50 ([6]; Homo sapiens, Endothelial cell): 0.8 µM; GI50 (MDA-MB-231): 0.8 µM
COc1ccc(/C=C/C(=O)/C=C/c2ccc(OC)c(OC)c2)cc1OC [MD6]	2826	3200	273	30	(87%)	1820 ± 283	87	1820 ± 283	(98%)	18428 ± 3377	98	18428 ± 3377	3.8	2.9	1.9	VEGF ([2]; 5 μM, DMSO = 100): 76%; VEGF ([2]; 20 μM, DMSO = 100): 1%; Neutral Red Uptake, % (RPMI-7951 human melanoma; 5 μM): 97 % of control; Cell Viability (RPMI-7951 human melanoma; 5 μM): 101%; Neutral Red Uptake, % (RPMI-7951 human melanoma; 20 μM): 6 % of control; Cell Viability (RPMI-7951 human melanoma; 20 μM): 42%; TF ([7]; 1 μM, DMSO = 100): 91%; TF ([7]; 1 μM, DMSO control 7054): 6400 pg/mL; TF ([7]; 5 μM, DMSO = 100): 25%; TF ELISA ([7]; 5 μM, DMSO control 7054): 1753 pg/ml/well; TF ([7]; Table 5, 5 μM, DMSO control 7054): 1753 pg/mL
CC(=O)Oc1ccccc1C=CC(=O)C=Cc1ccccc1OC(C)=O [MD286]													2.3	1.7	1	
